Data taken from US20240115744A1, “FIBRIN-BINDING COMPOUNDS FOR IMAGING AND TREATMENT” (Collagen Medical, LLC, priority 2019, published 2024).
Entries after “also recorded” stand apart in the source; their conditions may differ. *1 amine or outer side, *2 acyl side, *3 side chain or, on linkers, in order; H or OH if unused. Where a SMILES comes first, the peptide text is derived from it. Bridges are numbered along the chain shown (N, C = ends). [ ]: non-standard residue; d: D form. The star is where a group is joined. NODAGA = O=C(O)CN1CCN(CC(=O)O)CCN(C(CCC(=O)*)C(=O)O)CC1; Tyr(3-Cl) = N[C@@H](Cc1ccc(O)c(Cl)c1)C(=O)O; X1 = O=C([C@@H]1CC(O)CN1[*:1])[*:2]

Biological target: T1, fibrin in human carotid endarterectomy specimens (Homo sapiens, UniProt P02671+P02675+P02679)
T1 construct: discarded surgical specimens from asymptomatic patients who underwent elective carotid endarterectomy; from tissue; host or cells: human carotid endarterectomy specimens (cryosections or tissue pieces)
T1 sequence (P02671 36-644 isoform P02671-2 limits assumed): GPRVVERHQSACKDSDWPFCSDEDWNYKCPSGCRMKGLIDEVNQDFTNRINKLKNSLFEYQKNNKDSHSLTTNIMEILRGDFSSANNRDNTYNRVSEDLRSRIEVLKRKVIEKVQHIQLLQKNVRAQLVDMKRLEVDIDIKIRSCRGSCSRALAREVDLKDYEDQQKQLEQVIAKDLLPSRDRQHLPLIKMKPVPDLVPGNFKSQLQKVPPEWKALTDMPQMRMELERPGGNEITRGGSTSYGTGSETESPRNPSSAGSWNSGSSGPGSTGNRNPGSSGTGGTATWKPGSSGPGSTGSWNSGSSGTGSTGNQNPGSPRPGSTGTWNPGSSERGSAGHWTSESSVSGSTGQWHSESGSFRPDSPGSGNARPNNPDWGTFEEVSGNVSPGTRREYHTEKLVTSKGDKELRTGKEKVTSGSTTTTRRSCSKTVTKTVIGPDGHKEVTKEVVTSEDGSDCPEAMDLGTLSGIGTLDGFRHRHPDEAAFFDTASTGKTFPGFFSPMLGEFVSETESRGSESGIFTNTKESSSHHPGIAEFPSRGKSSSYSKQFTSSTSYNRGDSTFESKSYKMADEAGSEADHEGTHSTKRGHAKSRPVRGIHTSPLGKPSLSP
T1 sequence (P02675 45-491 limits assumed): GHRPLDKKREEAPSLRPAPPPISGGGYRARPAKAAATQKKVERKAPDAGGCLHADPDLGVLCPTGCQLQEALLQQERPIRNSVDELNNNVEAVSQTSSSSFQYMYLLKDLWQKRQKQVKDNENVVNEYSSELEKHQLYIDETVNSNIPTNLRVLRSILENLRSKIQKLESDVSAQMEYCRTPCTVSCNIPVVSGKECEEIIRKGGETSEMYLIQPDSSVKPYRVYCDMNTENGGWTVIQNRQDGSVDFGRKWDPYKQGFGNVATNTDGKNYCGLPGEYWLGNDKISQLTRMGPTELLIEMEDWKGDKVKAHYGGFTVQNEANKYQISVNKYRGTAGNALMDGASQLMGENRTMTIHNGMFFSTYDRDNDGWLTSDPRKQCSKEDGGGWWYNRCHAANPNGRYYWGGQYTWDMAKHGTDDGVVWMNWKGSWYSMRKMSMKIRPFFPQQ
T1 sequence (P02679 27-437 isoform P02679-2 limits assumed): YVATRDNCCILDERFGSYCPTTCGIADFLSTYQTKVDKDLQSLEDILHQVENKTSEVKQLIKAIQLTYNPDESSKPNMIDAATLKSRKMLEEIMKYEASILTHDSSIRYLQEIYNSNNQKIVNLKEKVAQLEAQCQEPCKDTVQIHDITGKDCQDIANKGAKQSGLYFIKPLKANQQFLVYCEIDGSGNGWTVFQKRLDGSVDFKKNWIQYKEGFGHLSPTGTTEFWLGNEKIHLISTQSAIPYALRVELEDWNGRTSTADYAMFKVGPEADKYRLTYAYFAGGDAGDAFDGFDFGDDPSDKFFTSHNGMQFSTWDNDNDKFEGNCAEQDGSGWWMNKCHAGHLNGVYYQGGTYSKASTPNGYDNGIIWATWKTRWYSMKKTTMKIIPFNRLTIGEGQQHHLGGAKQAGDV
Assay: Ex vivo autoradiography of human carotid endarterectomy specimens
Conditions: compared to non-binding probe ^68Ga-22; 12 patients; P<0.05
Experimental: Twelve discarded surgical specimens from asymptomatic patients who underwent elective carotid endarterectomy at Massachusetts General Hospital were obtained and used in ex vivo studies described herein. Samples were processed for histology, autoradiography, and probe binding assay as described above (Examples 6 and 13).
Discarded surgical specimens were embedded in optimal cutting temperature compound, snap-frozen, and stored at −80° C. before further analysis. Alternating consecutive cryosections were processed for histology and autoradiography; triplicate tissue samples with 50 μm gap in between were used for these experiments. The remaining tissue samples were processed for functional probe assay.
For autoradiography, three 30 μm-thick sections were incubated with ^68Ga-20 or non-fibrin binding control probe ^68Ga-22 for 45 minutes on a lab shaker at room temperature. Autoradiography was performed after three washes of PBS. The exposure time was 2 minutes.

`CC[C@H](C)[C@H](NC(=O)[C@H](Cc1cnc[nH]1)NC(=O)[C@@H]1CSSC[C@H](NC(=O)[C@@H](CCC(=O)O)NC(=O)[C@H](Cc2ccc(O)cc2)NC(=O)CCC(C(=O)O)N2CCN(CC(=O)O)CCN(CC(=O)O)CC2)C(=O)N2CC(O)C[C@H]2C(=O)N[C@@H](Cc2ccc(O)c(Cl)c2)C(=O)NCC(=O)N[C@@H](CC(C)C)C(=O)N1)C(=O)N[C@H](CCC(N)=O)C(N)=O` (stereo partly shown) [Compound ^68Ga-20, metal not drawn] ({NODAGA}-Y[dE]C[X1][Tyr(3-Cl)]GLCHI[dQ]-NH2; disulfide 3-8) was tested, and the “uptake, autoradiography” value was “variable but significantly increased; also recorded: significantly higher uptake”.
